Source: US10597388B2, “Pyridazinone herbicides” (FMC CORPORATION, priority 2014, dated 2020)

Tests used:
Format in all cases: in vivo
kochia (Kochia scoparia) = assay: Test A greenhouse herbicide test, pre- and postemergence
In short: (§1)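 Visual injury ratings, 0 (no effect) to 100 (complete control), versus untreated plants after roughly 10 d in a greenhouse. Compounds, formulated in a surfactant-containing non-phytotoxic solvent, were sprayed on loam–sand soil after sowing (pre) or on one- to two-leaf plants 2–10 cm tall (post).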

[1] = test system: barnyardgrass (Echinochloa crus-galli); assay: as above
In short: as §1

[2] = test system: foxtail, giant (giant foxtail, Setaria faberii); assay: as above
In short: as §1

corn (Zea mays) = assay: as above; conditions: Postemergence
In short: as §1

[3] = test system: wheat (Triticum aestivum); assay: as above; conditions: Postemergence
In short: as §1

[4] = test system: ragweed (common ragweed, Ambrosia elatior); assay: as above
In short: as §1

[5] = test system: ryegrass, Italian (Italian ryegrass, Lolium multiflorum); assay: as above
In short: as §1

[6] = test system: pigweed (Amaranthus retroflexus); assay: as above
In short: as §1

[7] = test system: velvetleaf (Abutilon theophrasti); assay: Test C greenhouse herbicide test, pre- and postemergence
Source text: (§2) Seeds of plant species selected from blackgrass (Alopecurus myosuroides), ryegrass, Italian (Italian ryegrass, Lolium multiflorum), wheat (winter wheat, Triticum aestivum), galium (catchweed bedstraw, Galium aparine), corn (Zea mays), large crabgrass, large (large crabgrass, Digitaria sanguinalis), foxtail, giant (giant foxtail, Setaria faberii), johnsongrass (Sorghum halepense), lambsquarters (Chenopodium album), morningglory (Ipomoea coccinea), nutsedge, yellow (yellow nutsedge, Cyperus esculentus), pigweed (Amaranthus retroflexus), ragweed (common ragweed, Ambrosia elatior), soybean (Glycine max), barnyardgrass (Echinochloa crus-galli), oilseed rape (Brassica napus), waterhemp (common waterhemp, Amaranthus rudis), and velvetleaf (Abutilon theophrasti) were planted into a blend of loam soil and sand and treated preemergence with test chemicals formulated in a non-phytotoxic solvent mixture which included a surfactant.
(§3) At the same time, plants selected from these crop and weed species and also chickweed (common chickweed, Stellaria media), kochia (Kochia scoparia), and oat, wild (wild oat, Avena fatua), were planted in pots containing Redi-Earth® planting medium (Scotts Company, 14111 Scottslawn Road, Marysville, Ohio 43041) comprising spaghnum peat moss, vermiculite, wetting agent and starter nutrients and treated with postemergence applications of test chemicals formulated in the same manner. Plants ranged in height from 2 to 18 cm (1- to 4-leaf stage) for postemergence treatments. Treated plants and controls were maintained in a greenhouse for 13 to 15 d, after which time all species were compared to controls and visually evaluated. Plant response ratings, summarized in Table C, are based on a scale of 0 to 100 where 0 is no effect and 100 is complete control. A dash (-) response means no test result.

[8] = test system: barnyardgrass (Echinochloa crus-galli); assay: as above
Source text: as §2, §3

[9] = test system: galium (catchweed bedstraw, Galium aparine); assay: as above
Source text: as §2, §3

[10] = Postemergence, 125 g ai/ha, 0 to 100 scale where 0 is no effect and 100 is complete control
[11] = Postemergence, 500 g ai/ha, 0 to 100 scale, 0 is no effect, 100 is complete control
[12] = Preemergence, 125 g ai/ha, 0 to 100 scale where 0 is no effect and 100 is complete control
[13] = Preemergence, 500 g ai/ha, 0 to 100 scale where 0 is no effect and 100 is complete control
[14] = 125 g ai/ha, 0 to 100 scale where 0 is no effect and 100 is complete control
[15] = 500 g ai/ha, 0 to 100 scale, 0 is no effect, 100 is complete control
[16] = Postemergence, 31 g ai/ha, 0 to 100 scale (0 no effect, 100 complete control)
[17] = Postemergence, 125 g ai/ha, scale 0 to 100, 0 is no effect, 100 is complete control
[18] = Postemergence, 250 g ai/ha, scale 0 to 100, 0 no effect, 100 complete control, 13 to 15 d
[19] = Preemergence, 31 g ai/ha, scale 0 to 100, 0 is no effect, 100 is complete control
[20] = Preemergence, 62 g ai/ha, scale 0 to 100, 0 is no effect, 100 is complete control
[21] = Preemergence, 125 g ai/ha, scale 0 to 100, 0 is no effect, 100 is complete control
[22] = Preemergence, 250 g ai/ha, scale 0 to 100 (0 no effect, 100 complete control)
[23] = postemergence, 62 g ai/ha, scale 0 to 100, 0 no effect, 100 complete control

CCOC(=O)Oc1c(C)nn(C)c(=O)c1-c1c(C)ccc2ccccc12 [Compound 73]
20: Plant response rating, Corn (corn (Zea mays); [14])
95: Plant response rating, Galium [9, 17] | Plant response rating, Galium [9, 18] | Plant response rating, Galium [9, 21]
40: Plant response rating, Barnyardgrass [1, 10] | Barnyardgrass plant response rating [1, 12] | Plant response rating, Wheat [3, 14] | Velvetleaf plant response rating [7, 16] | Barnyardgrass plant response rating [8, 23]
25: Plant response rating, Velvetleaf [7, 19] | Barnyardgrass plant response rating [8, 16] | Plant response rating, Barnyardgrass [8, 20]
100: Kochia plant response rating (kochia (Kochia scoparia); [11]) | Plant response rating, Kochia (kochia (Kochia scoparia); [13]) | Plant response rating, Barnyardgrass ([1]; Preemergence, 500 g ai/ha, 0 to 100 scale, 0 no effect, 100 complete control) | Foxtail, Giant plant response rating [2, 11] | Plant response rating, Foxtail, Giant [2, 13] | Ragweed plant response rating [4, 11] | Plant response rating, Ryegrass, Italian [5, 10] | Ryegrass, Italian plant response rating [5, 11] | Ryegrass, Italian plant response rating [5, 12] | Plant response rating, Ryegrass, Italian [5, 13] | Plant response rating, Pigweed [6, 10] | Pigweed plant response rating [6, 11] | Pigweed plant response rating [6, 12] | Plant response rating, Pigweed [6, 13]
90: Plant response rating, Kochia (kochia (Kochia scoparia); [10]) | Barnyardgrass plant response rating [1, 11] | Plant response rating, Foxtail, Giant [2, 10] | Foxtail, Giant plant response rating [2, 12] | Wheat plant response rating [3, 15] | Plant response rating, Ragweed [4, 10] | Ragweed plant response rating [4, 12] | Plant response rating, Ragweed [4, 13] | Plant response rating, Velvetleaf [7, 18] | Galium plant response rating [9, 16] | Plant response rating, Galium [9, 19] | Galium plant response rating [9, 23]
50: Kochia plant response rating (kochia (Kochia scoparia); [12])
98: Plant response rating, Galium [9, 20] | Galium plant response rating [9, 22]
55: Plant response rating, Barnyardgrass [8, 17]
70: Plant response rating, Barnyardgrass [8, 21]
60: Corn plant response rating (corn (Zea mays); [15]) | Plant response rating, Barnyardgrass [8, 18]
10: Plant response rating, Barnyardgrass [8, 19]
80: Plant response rating, Velvetleaf [7, 20]
85: Plant response rating, Velvetleaf [7, 17] | Plant response rating, Velvetleaf [7, 21] | Velvetleaf plant response rating [7, 22] | Velvetleaf plant response rating [7, 23] | Barnyardgrass plant response rating [8, 22]
